Reference: PMC6119295 (International Journal of Neuropsychopharmacology, 2018)

Tests used:
C57BL6 mice [1] = details: mouse, in vivo
C57BL6 mice [2] = assay: Morphine-induced analgesia in a hot plate assay; format: in vivo, mouse; details: dose used in prolactin/rotarod experiments; data not shown
rodents = details: ref Valenza et al., 2017; cited from earlier work
[3] = ref White et al., 2015, cited from earlier work
DOR = DOR (Homo sapiens, UniProt P41143); assay: Opioid receptor binding, DOR
C57BL6 mice [4] = details: mouse, in vivo; remark: listed apart in the source
mice = details: cited from earlier work
[5] = up to 10 mg/kg; ref Erli et al. 2017; cited from earlier work
dopamine D2 receptor = details: ref Spetea et al., 2012; cited from earlier work
MOR = MOR (Rattus norvegicus, UniProt P33535); assay: Opioid receptor binding, MOR
caudate putamen = details: 3.2 mg/kg, ref Zhang et al., 2005, cited from earlier work

DOR, sequence (P41143 whole entry): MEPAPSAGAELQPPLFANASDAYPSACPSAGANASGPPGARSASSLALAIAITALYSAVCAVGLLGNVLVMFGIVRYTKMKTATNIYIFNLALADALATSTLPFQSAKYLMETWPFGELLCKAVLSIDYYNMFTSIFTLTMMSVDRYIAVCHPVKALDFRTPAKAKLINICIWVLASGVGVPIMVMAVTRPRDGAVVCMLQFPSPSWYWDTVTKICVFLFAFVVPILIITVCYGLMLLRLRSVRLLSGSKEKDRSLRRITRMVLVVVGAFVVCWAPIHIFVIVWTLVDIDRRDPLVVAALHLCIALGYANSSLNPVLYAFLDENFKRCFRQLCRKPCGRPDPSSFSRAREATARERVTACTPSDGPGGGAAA
MOR, sequence (P33535 whole entry): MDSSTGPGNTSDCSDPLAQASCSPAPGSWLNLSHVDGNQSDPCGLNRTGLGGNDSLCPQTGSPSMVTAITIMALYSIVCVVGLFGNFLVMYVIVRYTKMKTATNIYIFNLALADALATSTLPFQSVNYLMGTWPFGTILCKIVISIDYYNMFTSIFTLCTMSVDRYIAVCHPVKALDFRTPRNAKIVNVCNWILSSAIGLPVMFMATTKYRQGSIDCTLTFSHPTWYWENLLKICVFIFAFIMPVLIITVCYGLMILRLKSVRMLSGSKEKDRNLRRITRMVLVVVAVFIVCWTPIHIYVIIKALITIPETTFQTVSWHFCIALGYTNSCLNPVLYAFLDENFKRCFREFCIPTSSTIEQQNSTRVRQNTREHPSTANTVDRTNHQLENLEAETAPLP

Compound: NC(=O)c1ccc(Oc2ccc(CN3CCC[C@H]3c3cccc(F)c3)cc2)c(F)c1 [LY2444296, (S)-3-fluoro-4-(4-((2-(3-fluorophenyl)pyrrolidin-1-yl)methyl)phenoxy)benzamide]
- Blockade of U50,488-stimulated prolactin release (C57BL6 mice [1]): blocks the effects
- Effect of antagonist alone on serum prolactin (C57BL6 mice [1]): no effect on prolactin
- Effect on morphine-induced analgesia in hot plate assay (C57BL6 mice [2]): does not inhibit morphine-induced analgesia
- Duration of action (short-acting) (rodents): < 48 h

Compound: COC(=O)[C@@H]1C[C@H](OC(=O)CSC#N)C(=O)[C@H]2[C@@]1(C)CC[C@H]1C(=O)O[C@H](c3ccoc3)C[C@]21C [RB-64]
- Effect on the rotarod [3]: did not have an effect on the rotarod

Compound: Oc1cccc(CCN(CCc2ccccc2)CC2CCC2)c1 [MCBPHA, N-methylcyclobutyl-N-phenylethyl-N-3-hydroxyphenylethyl-amine]
- Effect on serum prolactin after LY2444296 pretreatment (C57BL6 mice [1]): blocked the effect
- Ki (DOR): 3000 nM
- Rotarod incoordination after LY2444296 pretreatment (C57BL6 mice [4]): blocked
- Potency in peripheral analgesia (acetic acid writhing) (mice; mice, ref Spetea et al., 2012): equally potent as the well-characterized KOR agonist U50,488
- Efficacy in an analgesia assay in mice (mice; ref Spetea et al. 2012, Erli et al. 2017): efficacy
- Locomotor defects in the rotarod assay [5]: neither of these compounds caused locomotor defects
- Affinity and agonism at the dopamine D2 receptor (dopamine D2 receptor): low affinity and no agonism
- Ki (MOR): 270 nM

Compound: COC(=O)[C@@H]1C[C@H](OC(C)=O)C(=O)[C@H]2[C@@]1(C)CC[C@H]1C(=O)O[C@H](c3ccoc3)C[C@]21C [salvinorin A]
- Duration of decrease of extracellular dopamine (caudate putamen; after administration): at least 3 hours
- Decrease of extracellular dopamine in the caudate putamen (caudate putamen; systemic): over 50%
- Time after injection at which rotarod incoordination begins returning to normal ([3]; 3 mg/kg): ≤ 30 min
